According to the NIST ThermoML archive (doi:10.1016/j.fluid.2009.04.006):
Values joined by “and” are separate entries in the source; they are usually repeats but may differ in a detail not shown here. Identical values can stand only once.

Settings: Liquid, Closed cell (Static) method

NCCOCCOCCN [1,2-bis(2-aminoethoxy)ethane]
Settings | vapor or sublimation pressure [kPa]
292.92 K | 0.00358
302.88 K | 0.00757
312.87 K | 0.0156
322.91 K | 0.0297
332.89 K | 0.0545
342.89 K | 0.104
353.02 K | 0.184

OCCNCc1ccccc1 [2-benzylaminoethanol]
Settings | vapor or sublimation pressure
292.82 K | 0.000782 kPa
312.85 K | 0.0052 kPa
332.88 K | 0.0271 kPa
332.89 K | 0.027 kPa
352.92 K | 0.114 kPa
362.91 K | 0.239 kPa and 0.231 kPa

CN(C)CCN(C)C [N,N,N',N'-tetramethyl-1,2-diaminoethane]
Settings | vapor or sublimation pressure [kPa]
294.75 K | 1.766
304.74 K | 3.055
314.76 K | 5.055
324.95 K | 8.115
334.99 K | 12.53
344.96 K | 19.34
354.98 K | 28.12
364.97 K | 40.04

CN1CCOCC1 [N-methylmorpholine]
Settings | vapor or sublimation pressure
273.18 K | 6.9 kPa
283.12 K | 12.94 kPa and 12.93 kPa
293.06 K | 23.06 kPa
303.04 K | 39.34 kPa
313.05 K | 64.46 kPa
323.08 K | 101.73 kPa
333.07 K | 155.32 kPa
343.08 K | 230.31 kPa
353.08 K | 332.76 kPa
